Assays:
Test in all cases: relative viability (nuclei count vs DMSO), 5 days (fraction); higher = more cells survive
LC-2-ad = test system: LC-2-ad
Procedure, shortened: (§1)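 Values are medians from duplicate plates. Each reflects relative viability, defined as the nuclei count of treated wells over that of vehicle wells. Lung cancer cell lines in 1536-well plates were pin-tool dosed one day after seeding with one drug alone or with a fixed anchor-drug dose plus five library-drug doses (not always all listed) in √10 steps, then fixed, stained and imaged at 4× after 5 days.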

NCI-H441 = test system: NCI-H441
Procedure, shortened: as §1

NCI-H596 = test system: NCI-H596
Procedure, shortened: as §1

NCI-H1915 = test system: NCI-H1915
Procedure, shortened: as §1

CAL-12T = test system: CAL-12T
Procedure, shortened: as §1

NCI-H520 = test system: NCI-H520
Procedure, shortened: as §1

NCI-H727 = test system: NCI-H727
Procedure, shortened: as §1

NCI-H2087 = test system: NCI-H2087
Procedure, shortened: as §1

H3255 = test system: H3255
Procedure, shortened: as §1

NCI-H1651 = test system: NCI-H1651
Procedure, shortened: as §1

A-427 = test system: A-427
Procedure, shortened: as §1

ABC-1 = test system: ABC-1
Procedure, shortened: as §1

NCI-H650 = test system: NCI-H650
Procedure, shortened: as §1

BEN = test system: BEN
Procedure, shortened: as §1

NCI-H1650 = test system: NCI-H1650
Procedure, shortened: as §1

NCI-H1944 = test system: NCI-H1944
Procedure, shortened: as §1

NCI-H661 = test system: NCI-H661
Procedure, shortened: as §1

LCLC-97TM1 = test system: LCLC-97TM1
Procedure, shortened: as §1

NCI-H460 = test system: NCI-H460
Procedure, shortened: as §1

NCI-H2023 = test system: NCI-H2023
Procedure, shortened: as §1

PC-3 [JPC-3] = test system: PC-3 [JPC-3]
Procedure, shortened: as §1

201T = test system: 201T
Procedure, shortened: as §1

## COc1nc(C)cnc1NS(=O)(=O)c1cccnc1-c1ccc(-c2nnco2)cc1 [Zibotentan] + C[C@@H](Oc1cc(-c2cnn(C3CCNCC3)c2)cnc1N)c1c(Cl)ccc(F)c1Cl [Crizotinib] (partner 1 µM)
LC-2-ad; first compound 0.08 µM
  relative viability: 0.511
LC-2-ad; first compound 0.253 µM
  relative viability: 0.448
LC-2-ad; first compound 0.8 µM
  relative viability: 0.493
LC-2-ad; first compound 2.53 µM
  relative viability: 0.469
NCI-H441; first compound 0.08 µM
  relative viability: 0.772
NCI-H441; first compound 0.253 µM
  relative viability: 0.599
NCI-H441; first compound 0.8 µM
  relative viability: 0.982
NCI-H441; first compound 2.53 µM
  relative viability: 0.898
NCI-H596; first compound 0.08 µM
  relative viability: 0.942
NCI-H596; first compound 0.253 µM
  relative viability: 0.898
NCI-H596; first compound 0.8 µM
  relative viability: 0.989
NCI-H596; first compound 2.53 µM
  relative viability: 0.957
NCI-H1915; first compound 0.08 µM
  relative viability: 0.968
NCI-H1915; first compound 0.253 µM
  relative viability: 0.879
NCI-H1915; first compound 0.8 µM
  relative viability: 0.957
NCI-H1915; first compound 2.53 µM
  relative viability: 0.945
CAL-12T; first compound 0.08 µM
  relative viability: 0.667
CAL-12T; first compound 0.253 µM
  relative viability: 0.553
CAL-12T; first compound 0.8 µM
  relative viability: 0.602
CAL-12T; first compound 2.53 µM
  relative viability: 0.712
NCI-H520; first compound 0.08 µM
  relative viability: 0.857
NCI-H520; first compound 0.253 µM
  relative viability: 0.747
NCI-H520; first compound 0.8 µM
  relative viability: 0.798
NCI-H520; first compound 2.53 µM
  relative viability: 0.893
NCI-H727; first compound 0.08 µM
  relative viability: 0.985
NCI-H727; first compound 0.253 µM
  relative viability: 0.825
NCI-H727; first compound 0.8 µM
  relative viability: 0.806
NCI-H727; first compound 2.53 µM
  relative viability: 0.844
NCI-H2087; first compound 0.08 µM
  relative viability: 0.881
NCI-H2087; first compound 0.253 µM
  relative viability: 1.07
NCI-H2087; first compound 0.8 µM
  relative viability: 0.984
NCI-H2087; first compound 2.53 µM
  relative viability: 0.928
H3255; first compound 0.08 µM
  relative viability: 0.846
H3255; first compound 0.253 µM
  relative viability: 0.841
H3255; first compound 0.8 µM
  relative viability: 0.975
H3255; first compound 2.53 µM
  relative viability: 0.963
NCI-H1651; first compound 0.08 µM
  relative viability: 0.962
NCI-H1651; first compound 0.253 µM
  relative viability: 0.823
NCI-H1651; first compound 0.8 µM
  relative viability: 0.837
NCI-H1651; first compound 2.53 µM
  relative viability: 0.862
A-427; first compound 0.08 µM
  relative viability: 0.858
A-427; first compound 0.253 µM
  relative viability: 0.91
A-427; first compound 0.8 µM
  relative viability: 0.904
A-427; first compound 2.53 µM
  relative viability: 0.84
ABC-1; first compound 0.08 µM
  relative viability: 1.45
ABC-1; first compound 0.253 µM
  relative viability: 0.847
ABC-1; first compound 0.8 µM
  relative viability: 1.07
ABC-1; first compound 2.53 µM
  relative viability: 0.987
NCI-H650; first compound 0.08 µM
  relative viability: 0.856
NCI-H650; first compound 0.253 µM
  relative viability: 0.661
NCI-H650; first compound 0.8 µM
  relative viability: 0.705
NCI-H650; first compound 2.53 µM
  relative viability: 0.792
BEN; first compound 0.08 µM
  relative viability: 0.803
BEN; first compound 0.253 µM
  relative viability: 0.724
BEN; first compound 0.8 µM
  relative viability: 0.989
BEN; first compound 2.53 µM
  relative viability: 1.02
NCI-H1650; first compound 0.08 µM
  relative viability: 1.05
NCI-H1650; first compound 0.8 µM
  relative viability: 1.01
NCI-H1650; first compound 2.53 µM
  relative viability: 0.925
NCI-H1944; first compound 0.08 µM
  relative viability: 1.26
NCI-H1944; first compound 0.253 µM
  relative viability: 1.08
NCI-H1944; first compound 0.8 µM
  relative viability: 1.06
NCI-H1944; first compound 2.53 µM
  relative viability: 1.06
NCI-H661; first compound 0.08 µM
  relative viability: 0.971
NCI-H661; first compound 0.8 µM
  relative viability: 1.04
NCI-H661; first compound 2.53 µM
  relative viability: 0.853
LCLC-97TM1; first compound 0.08 µM
  relative viability: 0.272
LCLC-97TM1; first compound 0.253 µM
  relative viability: 0.374
LCLC-97TM1; first compound 0.8 µM
  relative viability: 0.351
LCLC-97TM1; first compound 2.53 µM
  relative viability: 0.435
NCI-H460; first compound 0.08 µM
  relative viability: 1.2
NCI-H460; first compound 0.8 µM
  relative viability: 1.01
NCI-H460; first compound 2.53 µM
  relative viability: 0.903
NCI-H2023; first compound 0.08 µM
  relative viability: 0.605
NCI-H2023; first compound 0.253 µM
  relative viability: 0.475
NCI-H2023; first compound 0.8 µM
  relative viability: 0.72
NCI-H2023; first compound 2.53 µM
  relative viability: 0.631
PC-3 [JPC-3]; first compound 0.08 µM
  relative viability: 0.951
PC-3 [JPC-3]; first compound 0.253 µM
  relative viability: 0.967
PC-3 [JPC-3]; first compound 0.8 µM
  relative viability: 0.955
PC-3 [JPC-3]; first compound 2.53 µM
  relative viability: 0.966
201T; first compound 0.08 µM
  relative viability: 1.03
201T; first compound 0.253 µM
  relative viability: 0.992
201T; first compound 0.8 µM
  relative viability: 1.04
201T; first compound 2.53 µM
  relative viability: 1.07
